Assay results taken from patent US20140309229A1, “METHODS FOR SELECTING AND TREATING CANCER IN PATIENTS WITH IGF-1R/IR INHIBITORS” (priority 2011, published 2014).

Legend:
[1] = tested on: SW403; assay: MTS proliferation assay; assay type: cell-based, human; details: SW403; preliminary panel of 45 CRC cell lines
Method: (§1) Cell lines and in vitro cytotoxicity assay. Cells were maintained at 37° C. under standard cell culture conditions. Cells were plated at an optimized density for each cell line per well in 96-well microtiter FALCON® plates, incubated overnight, and then exposed to a serial dilution of drug. […] The results were expressed as an IC50, which is the drug concentration required to inhibit cell proliferation to 50% of that of untreated control cells. The mean IC50 and standard deviation (SD) from multiple tests for each cell line were calculated.
(§2) In vitro Cellular Proliferation Assays.

[2] = tested on: CaR-1; assay: MTS proliferation assay; assay type: cell-based, human
Method: as §1, §2

[3] = tested on: MIP; assay: MTS proliferation assay; assay type: cell-based, human
Method: as §1, §2

[4] = tested on: NCI-H508; assay: MTS proliferation assay; assay type: cell-based, human
Method: as §1, §2

[5] = tested on: RKO-RM13; assay: MTS proliferation assay; assay type: cell-based, human
Method: as §1, §2

[6] = tested on: LS174T; assay: MTS proliferation assay; assay type: cell-based, human
Method: as §1, §2

[7] = tested on: HT55; assay: MTS proliferation assay; assay type: cell-based, human
Method: as §1, §2

[8] = tested on: GEO; assay: MTS proliferation assay; assay type: cell-based, human
Method: as §1, §2

[9] = tested on: COLO-205; assay: MTS proliferation assay; assay type: cell-based, human
Method: as §1, §2

[10] = tested on: CACO-2; assay: MTS proliferation assay; assay type: cell-based, human
Method: as §1, §2

[11] = tested on: LS-1034; assay: MTS proliferation assay; assay type: cell-based, human
Method: as §1, §2

[12] = tested on: HCT-116; assay: MTS proliferation assay; assay type: cell-based, human
Method: as §1, §2

[13] = tested on: NCI-H747; assay: MTS proliferation assay; assay type: cell-based, human
Method: as §1, §2

[14] = tested on: HCC2998; assay: MTS proliferation assay; assay type: cell-based, human
Method: as §1, §2

[15] = tested on: SW1417; assay: MTS proliferation assay; assay type: cell-based, human
Method: as §1, §2

[16] = tested on: pIGF-1R/pIR and pAKT
Method: Cells were serum-starved overnight, then either stimulated with 50 ng/ml IGF-1, IGF-2 or insulin for 10 minutes, or unstimulated. Cell lysates were subjected to MSD for measuring both total and phosphorylated IGF-1R and AKT. The phospho-protein values were normalized to the corresponding total protein levels (e.g., pIGF-1R/IGF-1R). The ligand-stimulated activation of IGF-1R or AKT is presented as the ratio of the pIGF-1R/IGF-1R or pAKT/AKT value in IGF-1, IGF-2 or insulin-stimulated cells vs. the value in the non-stimulated cells. […] 20 ug of total protein from cell lysates were subjected to Western blot analysis.
Western Blots and MesoScale Discovery (MSD) Multiplex Plate Based Assays. […] Antibodies for pIGF-IR/pIR, pAkt, p-p44/42 MAPK and IRS2 for Western blot and MSD were purchased from Cell Signaling Technology and Santa Cruz Biotechnology (see figure legends) except for β-ACTIN® sourced from Millipore. Protein signals from Western blots were visualized using ODYSSEY® Imaging (Li-Cor Biosciences). Measurement of phospho- and total IGF-1R, IR, IRS-1, Akt and MAPK was also determined by commercially available multiplex plate based assays (MSD, Gaithersburg Md.). […] Measurement of IRS2 was determined using customized assays utilizing MSD technology.
Cell lysates were subsequently subjected to Western blot analysis and evaluated for pIGF-1R/pIR and pAKT.

SMILES: C[C@@]1(C(=O)Nc2ccc(F)nc2)CCCN1c1nc(Nc2cc(C3CC3)n[nH]2)c2cccn2n1 [BMS-754807, (2S)-1-(4-((5-cyclopropyl-1H-pyrazol-3-yl)amino)pyrrolo[2,1-f][1,2,4]triazin-2-yl)-N-(6-fluoro-3-pyridinyl)-2-methyl-2-pyrrolidinecarboxamide]
- Sensitivity to BMS-754807 [1]: Sensitive (a sensitive cell line was classified as one with an IC50 of ≦50 nmol/L)
- Sensitivity Classes ([2]; CaR-1): R (“R” refers Resistant)
- IC50 ([2]; Homo sapiens, CaR-1, 72 h): 375 nM
- Sensitivity Classes [3]: R (“R” refers Resistant)
- IC50 ([3]; Homo sapiens, 72 hrs): 4360 nM
- Sensitivity to BMS-754807 ([4]; H508, preliminary panel of 45 CRC cell lines): Sensitive (a sensitive cell line was classified as one with an IC50 of ≦50 nmol/L)
- IC50 ([4]; Homo sapiens, NCI-H508, 72 h): 11 nM
- Sensitivity Classes ([4]; NCI-H508): S (“S” refers Sensitive)
- IC50 ([5]; Homo sapiens, 72 h): 727 nM
- Sensitivity Classes ([5]; RKO-RM13): R (“R” refers Resistant)
- Sensitivity to BMS-754807 ([5]; RKO-RM13, preliminary panel of 45 CRC cell lines): Resistant (resistant cell lines had IC50 values of >50 nmol/L)
- Sensitivity Classes [6]: R (“R” refers Resistant)
- IC50 ([6]; Homo sapiens, 72 h): 358 nM
- Sensitivity to BMS-754807 ([6]; preliminary panel of 45 CRC cell lines): Intermediate (remaining 30 cell lines classified as Intermediate or resistant)
- Sensitivity Classes ([7]; HT55): S (“S” refers Sensitive)
- IC50 ([7]; Homo sapiens, HT55, 72 h): 3 nM
- Sensitivity Classes ([8]; GEO): R (“R” refers Resistant)
- Sensitivity to BMS-754807 ([8]; GEO, preliminary panel of 45 CRC cell lines): Intermediate (remaining 30 cell lines classified as Intermediate or resistant)
- IC50 ([8]; Homo sapiens, 72 h): 407 nM
- Sensitivity to BMS-754807 ([9]; COLO205, preliminary panel of 45 CRC cell lines): Intermediate (remaining 30 cell lines classified as Intermediate or resistant)
- Sensitivity Classes ([9]; COLO-205): R (“R” refers Resistant)
- IC50 ([9]; Homo sapiens, COLO 205, 72 h): 242 nM
- Sensitivity Classes ([10]; CACO-2): R (“R” refers Resistant)
- Sensitivity to BMS-754807 ([10]; CACO-2, preliminary panel of 45 CRC cell lines): Resistant (resistant cell lines had IC50 values of >50 nmol/L)
- IC50 ([10]; Homo sapiens, Caco-2, 72 h): 5500 nM
- IC50 ([11]; Homo sapiens, LS-1034, 72 h): 44 nM
- Sensitivity to BMS-754807 ([11]; LS1034, preliminary panel of 45 CRC cell lines): Sensitive (a sensitive cell line was classified as one with an IC50 of ≦50 nmol/L)
- Sensitivity Classes ([11]; LS-1034): S (“S” refers Sensitive)
- Sensitivity to BMS-754807 ([12]; HCT116, preliminary panel of 45 CRC cell lines): Resistant (resistant cell lines had IC50 values of >50 nmol/L)
- Sensitivity Classes ([12]; HCT-116): R (“R” refers Resistant)
- IC50 ([12]; Homo sapiens, HCT-116, 72 h): 503 nM
- IC50 ([13]; Homo sapiens, NCI-H747, 72 h): 1160 nM
- Sensitivity Classes ([13]; NCI-H747): R (“R” refers Resistant)
- Sensitivity to BMS-754807 ([13]; NCI-H747, preliminary panel of 45 CRC cell lines): Resistant (resistant cell lines had IC50 values of >50 nmol/L)
- Sensitivity Classes ([14]; HCC2998): R (“R” refers Resistant)
- IC50 ([14]; Homo sapiens, HCC 2998, 72 h): 380 nM
- IC50 ([15]; Homo sapiens, SW1417, 72 h): 106 nM
- Sensitivity Classes ([15]; SW1417): R (“R” refers Resistant)
- Sensitivity to BMS-754807 ([15]; SW1417, preliminary panel of 45 CRC cell lines): Intermediate (remaining 30 cell lines classified as Intermediate or resistant)
- pIGF-1R/pIR and pAKT levels [16]: inhibited by BMS-754807 treatment in a dose-dependent manner
